Experimental data published in patent US4024277A, “Phosphoro-aminosulfenyl derivatives of benzofuran carbamates” (priority 1975, dated 1977).

Tests used:
plum curculio = assay: Initial insecticidal activity, plum curculio; assay type: in vivo, Conotrachelus nenuphar (Herbst); settings: Conotrachelus nenuphar, 48-hour exposure, read-out: % Kill, Plum Curculio
How it was run: (§1)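 Candidate insecticide solutions were sprayed or dipped onto plants or containers, infested before or after treatment depending on species. Mortality was read after a 48-hour exposure, alongside a solvent-only control.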

granary weevil [1] = assay: Initial insecticidal activity, granary weevil; assay type: in vivo, Sitophilus granarius (Linnaeus); settings: Sitophilus granarius, 48-hour exposure, read-out: % Kill, Granary Weevil
From the text: a. Initial Insecticidal Activity
In this test, a candidate insecticide, in solution, is applied to either infested or uninfested plants or containers by spraying or dipping. (The preferred test procedure varies with insect species. The dipping method is better than the spraying method, and vice versa, for certain species of insects. Also some species are better adapted to the test by infesting after the chemical treatment rather than before.) Once the tests have been established, a 48-hour exposure period is observed before reading the tests. Insect species included in these tests are Mexican bean beetle (Epilachna varivestis Mulsant), pea aphid [Acyrthosiphon pisum (Harris)], southern armyworm [Spodoptera eridania (Cramer)], twospotted spider mite (Tetranychus urticae Koch), large milkweed bug [Oncopeltus fasciatus (Dallas)], plum curculio [Conotrachelus nenuphar (Herbst)], confused flour beetle (Tribolium confusum Jacquelin duVal) and granary weevil [Sitophilus granarius (Linnaeus)]. Test results are set forth in Table I. A control sample, comprising the solution without the candidate insecticide, is also included.

[2] = Mammalian toxicity, 14-day LD50 in rats; settings: rat, in vivo, Wistar derived albino rats, method of Miller and Tainter
From the text: The compounds of this invention are characterized by advantageous mammalian toxicity values when compared with values for related compounds. This is shown by comparative values obtained with Wistar derived albino rats in 14-day tests. The animals were fed, housed and watered in accordance with standard laboratory procedures. The 14-day LD50 determination was estimated in accord with the method of Miller and Tainter (Experimental Biology and Medicine, 57, pp. 261-264, 1944).

pea aphid = assay: Seven-day residual insecticidal activity, pea aphid; assay type: in vivo, Acyrthosiphon pisum (Harris); settings: Acyrthosiphon pisum, 48-hour exposure, read-out: % Kill, Pea Aphid
From the text: (§2) b. Seven-Day Residual Insecticidal Activity
(§3) In this test, a candidate insecticide, in solution, is applied to uninfested plants or containers by dipping or spraying. A seven-day holding period is necessary before infestation. A 48-hour exposure period is observed before evaluation of the tests. The insect species used in this type of test are the same as those listed under initial activity.

Mexican bean beetle = assay: Initial insecticidal activity, Mexican bean beetle; assay type: in vivo, Epilachna varivestis Mulsant; settings: Epilachna varivestis, 48-hour exposure, read-out: % Kill, Mexican Bean Beetle
How it was run: as §1

twospotted spider mite [3] = assay: Seven-day residual insecticidal activity, twospotted spider mite; assay type: in vivo, Tetranychus urticae Koch; settings: Tetranychus urticae, 48-hour exposure, read-out: % Kill, Twospotted Spider Mite
From the text: as §2, §3

southern armyworm = assay: Initial insecticidal activity, southern armyworm; assay type: in vivo, Spodoptera eridania (Cramer); settings: Spodoptera eridania, 48-hour exposure, read-out: % Kill, Southern Armyworm
How it was run: as §1

large milkweed bug = assay: Seven-day residual insecticidal activity, milkweed bug; assay type: in vivo, Oncopeltus fasciatus (Dallas); settings: Oncopeltus fasciatus, 48-hour exposure, read-out: % Kill, Milkweed Bug
From the text: as §2, §3

house flies = assay: Level I immersion test, house flies; assay type: in vivo, Musca domestica Linnaeus; settings: HF, 5 mg/milliliter; for % Knockdown: 10 minutes after immersion; for mortality at 5000 µg/mL: Musca domestica, after 18-24 hours, read-out: % Kill
Description: e. Insecticidal Activity Against House Flies and German Cockroaches
Compounds of this invention were tested in a Level I test at 5 mg. of active compounds/milliliter of a solution of 40% acetone -- 60% water.
In this test a group of ten house flies (Musca domestica Linnaeus) were completely immersed in 25 ml. of the insecticidal test solution. After 10 seconds of immersion, the test solution is removed. The house flies are then transferred to holding cages lines with paper toweling. In the case of the house flies, the knockdown counts were recorded 10 minutes after termination of the immersion. The percent kill was recorded after 18-24 hours.

twospotted spider mite [4] = assay: Ovicidal activity against the twospotted spider mite; assay type: in vivo, Tetranychus urticae Koch; settings: Tetranychus urticae, eggs, 7 to 10 days, read-out: % Kill (ovicidal)
How it was run: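 Pinto bean seedlings carrying eggs laid by female mites over 3–4 hours were dipped in TEPP (936 ppm) to kill motile stages, then 2–3 hours later dipped in the candidate solution. Plants were held 7–10 days, and exposure ended when the untreated check reached complete hatch.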

confused flour beetle = assay: Seven-day residual insecticidal activity, confused flour beetle; assay type: in vivo, Tribolium confusum Jacquelin duVal; settings: Tribolium confusum, 48-hour exposure, read-out: % Kill, Confused Flour Beetle
From the text: as §2, §3

granary weevil [5] = assay: Seven-day residual insecticidal activity, granary weevil; assay type: in vivo, Sitophilus granarius (Linnaeus); settings: Sitophilus granarius, 48-hour exposure, read-out: % Kill, Granary Weevil
From the text: as §2, §3

Question: What does the source list for CCCOP(=O)(OCCC)N(C)SN(C)C(=O)Oc1cccc2c1OC(C)(C)C2 [2(d), 2,3-dihydro-2,2-dimethyl-7-benzofuranyl [(N-di-n-propoxyphosphinyl) (N-methyl)aminosulfenyl][methyl]carbamate]?
Answer: mortality at 39 ppm (plum curculio): 0%; mortality at 156 ppm (plum curculio): 20%; mortality at 1250 ppm (plum curculio): 100%; mortality at 39 ppm (granary weevil [1]): 88%; mortality at 156 ppm (granary weevil [1]): 100%; mortality at 1250 ppm (granary weevil [1]): 100%; LD50 at 336 h [2]: 152 mg/kg; mortality at 39 ppm (pea aphid): 0%; mortality at 156 ppm (pea aphid): 0%; mortality at 1250 ppm (pea aphid): 56%; mortality at 39 ppm (Mexican bean beetle): 100%; mortality at 156 ppm (Mexican bean beetle): 100%; mortality at 1250 ppm (Mexican bean beetle): 100%; mortality at 39 ppm (twospotted spider mite [3]): 0%; mortality at 156 ppm (twospotted spider mite [3]): 0%; mortality at 1250 ppm (twospotted spider mite [3]): 1%; mortality at 39 ppm (southern armyworm): 0%; mortality at 156 ppm (southern armyworm): 54%; mortality at 1250 ppm (southern armyworm): 100%; mortality at 39 ppm (large milkweed bug): 56%; mortality at 156 ppm (large milkweed bug): 100%; mortality at 1250 ppm (large milkweed bug): 100%; % Knockdown (house flies): 100%; mortality at 5000 µg/mL (house flies): 100%; mortality at 156 ppm (twospotted spider mite [4]): 2%; mortality at 1250 ppm (twospotted spider mite [4]): 80%; mortality at 39 ppm (confused flour beetle): 0%; mortality at 156 ppm (confused flour beetle): 2%; mortality at 1250 ppm (confused flour beetle): 38%

Question: Which results are given for CCCOP(=O)(OCCC)N(CCC)SN(C)C(=O)Oc1cccc2c1OC(C)(C)C2 [3(c)]?
Answer: mortality at 39 ppm (plum curculio): 5%; mortality at 156 ppm (plum curculio): 5%; mortality at 1250 ppm (plum curculio): 77%; mortality at 39 ppm (granary weevil [1]): 70%; mortality at 156 ppm (granary weevil [1]): 90%; mortality at 1250 ppm (granary weevil [1]): 100%; mortality at 39 ppm (pea aphid): 0%; mortality at 156 ppm (pea aphid): 0%; mortality at 1250 ppm (pea aphid): 73%; mortality at 39 ppm (Mexican bean beetle): 100%; mortality at 156 ppm (Mexican bean beetle): 100%; mortality at 1250 ppm (Mexican bean beetle): 100%; mortality at 39 ppm (twospotted spider mite [3]): < 1%; mortality at 156 ppm (twospotted spider mite [3]): 0%; mortality at 1250 ppm (twospotted spider mite [3]): 5%; mortality at 39 ppm (southern armyworm): 0%; mortality at 156 ppm (southern armyworm): 22%; mortality at 1250 ppm (southern armyworm): 100%; mortality at 39 ppm (large milkweed bug): 5%; mortality at 156 ppm (large milkweed bug): 90%; mortality at 1250 ppm (large milkweed bug): 100%; % Knockdown (house flies): 100%; mortality at 5000 µg/mL (house flies): 100%; mortality at 156 ppm (twospotted spider mite [4]): 0%; mortality at 1250 ppm (twospotted spider mite [4]): 70%; mortality at 39 ppm (confused flour beetle): 0%; mortality at 156 ppm (confused flour beetle): 0%; mortality at 1250 ppm (confused flour beetle): 78%

Question: What does the source list for CCOP(=O)(OCC)N(C)SN(C)C(=O)Oc1cccc2c1OC(C)(C)C2 [Example 1(c), 2,3-dihydro-2,2-dimethyl-7-benzofuranyl [(N-diethoxyphosphinyl) (N-methyl)-aminosulfenyl][methyl]carbamate]?
Answer: mortality at 39 ppm (plum curculio): 0%; mortality at 156 ppm (plum curculio): 15%; mortality at 1250 ppm (plum curculio): 100%; mortality at 39 ppm (granary weevil [1]): 30%; mortality at 156 ppm (granary weevil [1]): 100%; mortality at 1250 ppm (granary weevil [1]): 100%; LD50 at 336 h [2]: 146 mg/kg; mortality at 39 ppm (pea aphid): 0%; mortality at 156 ppm (pea aphid): 0%; mortality at 1250 ppm (pea aphid): 100%; mortality at 39 ppm (Mexican bean beetle): 100%; mortality at 156 ppm (Mexican bean beetle): 100%; mortality at 1250 ppm (Mexican bean beetle): 100%; mortality at 39 ppm (twospotted spider mite [3]): 2%; mortality at 156 ppm (twospotted spider mite [3]): 1%; mortality at 1250 ppm (twospotted spider mite [3]): 9%; mortality at 39 ppm (granary weevil [5]; 39 ppm): 8%; mortality at 156 ppm (granary weevil [5]; 156 ppm): 97%; mortality at 1250 ppm (granary weevil [5]; 1250 ppm): 100%; mortality at 39 ppm (southern armyworm): 6%; mortality at 156 ppm (southern armyworm): 20%; mortality at 1250 ppm (southern armyworm): 95%; mortality at 39 ppm (large milkweed bug): 55%; mortality at 156 ppm (large milkweed bug): 100%; mortality at 1250 ppm (large milkweed bug): 100%; % Knockdown (house flies): 100%; mortality at 5000 µg/mL (house flies): 100%; mortality at 39 ppm (twospotted spider mite [4]; 39 ppm): 0%; mortality at 156 ppm (twospotted spider mite [4]): 0%; mortality at 1250 ppm (twospotted spider mite [4]): 72%; mortality at 39 ppm (confused flour beetle): 10%; mortality at 156 ppm (confused flour beetle): 18%; mortality at 1250 ppm (confused flour beetle): 23%
